Assay [1] has as its target T1, KRAS (G12D) (Homo sapiens, UniProt P01116, G12D).
T1 construct: in-cell western with KRAS G12D antibody after 24 h
Kind of assay: KRAS (G12D) cellular degradation assay in AsPC-1 cells. The following applies: 24 hours, antibody fluorescence (Odyssey CLX), DC50 half-maximal degradation concentration. It is filed as cell-based. A digest of the protocol:
(§1)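 Read-outs were KRAS G12D immunofluorescence against β-actin after 24 h (DC50) and CellTiter Glo luminescence after 6 days (IC50). Compounds were titrated 1:3 from […] to 1.5 nM final on AsPC-1 cells at 37 °C, 5% CO2.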

Assay [2] relates to AsPC-1 cells. Nature of the assay: AsPC-1 cell proliferation assay (CellTiter Glo). In kind it is cell-based. Particulars: 6 days. A digest of the protocol: as §1

In patent publication US20260295053A1, “COMPOUNDS FOR DEGRADATION AND INHIBITION OF KRAS (G12D) PROTEIN” (Shenzhen Ionova Life Science Co., Ltd., priority 2023, published 2026) one finds DC50 and IC50 data, which are given here for eleven compounds.

In general, DC50 refers to the concentration giving 50% degradation. By IC50 is commonly meant the concentration that gives 50% inhibition. A higher IC50 goes with a need for much substance.

T1 sequence (P01116 1-188 isoform P01116-2 G12D): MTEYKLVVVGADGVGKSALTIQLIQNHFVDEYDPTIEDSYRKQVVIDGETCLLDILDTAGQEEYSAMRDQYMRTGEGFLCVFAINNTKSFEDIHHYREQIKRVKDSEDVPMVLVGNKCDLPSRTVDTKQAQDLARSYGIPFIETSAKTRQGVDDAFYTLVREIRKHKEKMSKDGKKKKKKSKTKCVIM

The compound `Cc1ncsc1-c1ccc([C@@H](NC(=O)[C@@H]2C[C@@H](O)CN2C(=O)[C@H](C(C)C)n2cc(-c3ccc(COc4c(-c5c(C)c(F)cc6[nH]ncc56)c(C5CC5)cc5c(N6C[C@@H]7C[C@H]6CN7)nc(OC6CCOCC6)nc45)cc3)nn2)[C@@H](O)C2CC2)cc1` [Example 138, (2S,4R)-1-((2S)-2-(4-(4-(((4-((1S,4S)-2,5-diazabicyclo[2.2.1]heptan-2-yl)-6-cyclopropyl-7-(6-fluoro-5-methyl-1H-indazol-4-yl)-2-((tetrahydro-2H-pyran-4-yl)oxy)quinazolin-8-yl)oxy)methyl)phenyl)-1H-1,2,3-triazol-1-yl)-3-methylbutanoyl)-N-((1R,2S)-2-cyclopropyl-2-hydroxy-1-(4-(4-methylthiazol-5-yl)phenyl)ethyl)-4-hydroxypyrrolidine-2-carboxamide] returned a DC50 in assay [1] below 10 nM. In addition, in assay [2] (Homo sapiens, ASPC1, 144 h), the IC50 was below 10 nM.
In assay [1], `CC[C@H](O)[C@H](NC(=O)[C@@H]1C[C@@H](O)CN1C(=O)[C@H](C(C)C)n1cc(-c2ccc(COc3c(-c4c(C)c(F)cc5[nH]ncc45)c(C4CC4)cc4c(N5C[C@@H]6C[C@H]5CN6)nc(OC5CCOCC5)nc34)cc2)nn1)c1ccc(-c2scnc2C)cc1` [Example 139, (2S,4R)-1-((2S)-2-(4-(4-(((4-((1S,4S)-2,5-diazabicyclo[2.2.1]heptan-2-yl)-6-cyclopropyl-7-(6-fluoro-5-methyl-1H-indazol-4-yl)-2-((tetrahydro-2H-pyran-4-yl)oxy)quinazolin-8-yl)oxy)methyl)phenyl)-1H-1,2,3-triazol-1-yl)-3-methylbutanoyl)-4-hydroxy-N-((1R,2S)-2-hydroxy-1-(4-(4-methylthiazol-5-yl)phenyl)butyl)pyrrolidine-2-carboxamide] had a DC50 below 10 nM. Also, in assay [2] (Homo sapiens, ASPC1, 144 h), the IC50 is below 10 nM.
`CO[C@@H](C)COc1nc(N(C)[C@H]2CCNC2)c2cc(C3CC3)c(-c3c(C)c(F)cc4[nH]ncc34)c(OCc3ccc(-c4cn([C@H](C(=O)N5C[C@H](O)C[C@H]5C(=O)N[C@H](c5ccc(-c6scnc6C)cc5)[C@H](C)O)C(C)C)nn4)cc3)c2n1` [Example 143, (2S,4R)-1-((2S)-2-(4-(4-(((6-cyclopropyl-7-(6-fluoro-5-methyl-1H-indazol-4-yl)-2-((S)-2-methoxypropoxy)-4-(methyl((S)-pyrrolidin-3-yl)amino)quinazolin-8-yl)oxy)methyl)phenyl)-1H-1,2,3-triazol-1-yl)-3-methylbutanoyl)-4-hydroxy-N-((1R,2S)-2-hydroxy-1-(4-(4-methylthiazol-5-yl)phenyl)propyl)pyrrolidine-2-carboxamide] gave a DC50 in assay [1] below 10 nM. The same compound had an IC50 in assay [2] below 10 nM.
As for `CO[C@@H](C)COc1nc(N(C)[C@H]2CCNC2)c2cc(C3CC3)c(-c3c(C)c(F)cc4[nH]ncc34)c(OCc3ccc(-c4cn([C@H](C(=O)N5C[C@H](O)C[C@H]5C(=O)N[C@H](c5ccc(-c6scnc6C)cc5)[C@H](C)O)C(C)C)nn4)cc3)c2n1` [Example 144, (2S,4R)-1-((2S)-2-(4-(4-(((6-cyclopropyl-7-(6-fluoro-5-methyl-1H-indazol-4-yl)-2-((S)-2-methoxypropoxy)-4-(methyl((S)-pyrrolidin-3-yl)amino)quinazolin-8-yl)oxy)methyl)phenyl)-1H-1,2,3-triazol-1-yl)-3-methylbutanoyl)-4-hydroxy-N-((1R,2S)-2-hydroxy-1-(4-(4-methylthiazol-5-yl)phenyl)propyl)pyrrolidine-2-carboxamide], the DC50 in assay [1] was above 1000 nM. The compound also displayed an IC50 in assay [2] above 1000 nM.
As to `CCn1nccc1-c1ccc([C@@H](NC(=O)[C@@H]2C[C@@H](O)CN2C(=O)[C@H](C(C)C)n2cc(-c3ccc(COc4c(-c5c(C)c(F)cc6[nH]ncc56)c(C5CC5)cc5c(N6C[C@@H]7C[C@H]6CN7)nc(O[C@H]6C[C@H](OC)C6)nc45)cc3)nn2)[C@H](C)O)c2c1CC2` [Example 147, (2S,4R)-1-((2S)-2-(4-(4-(((4-((1S,4S)-2,5-diazabicyclo[2.2.1]heptan-2-yl)-6-cyclopropyl-7-(6-fluoro-5-methyl-1H-indazol-4-yl)-2-((1r,3S)-3-methoxycyclobutoxy)quinazolin-8-yl)oxy)methyl)phenyl)-1H-1,2,3-triazol-1-yl)-3-methylbutanoyl)-N-((1R,2S)-1-(5-(1-ethyl-1H-pyrazol-5-yl)bicyclo[4.2.0]octa-1(6),2,4-trien-2-yl)-2-hydroxypropyl)-4-hydroxypyrrolidine-2-carboxamide], the DC50 in assay [1] was below 10 nM. Besides, in assay [2] (Homo sapiens, ASPC1, 144 h), the IC50 was below 10 nM.
Consider `CO[C@@H](C)COc1nc(N2C[C@@H]3C[C@H]2CN3)c2cc(C3CC3)c(-c3c(C)c(F)cc4[nH]ncc34)c(OCc3ccc(-c4cn([C@H](C(=O)N5C[C@H](O)C[C@H]5C(=O)N[C@H](c5ccc(S(F)(F)(F)(F)F)cc5)[C@H](C)O)C(C)C)nn4)cc3)c2n1` [Example 148, (2S,4R)-1-((2S)-2-(4-(4-(((4-((1S,4S)-2,5-diazabicyclo[2.2.1]heptan-2-yl)-6-cyclopropyl-7-(6-fluoro-5-methyl-1H-indazol-4-yl)-2-((S)-2-methoxypropoxy)quinazolin-8-yl)oxy)methyl)phenyl)-1H-1,2,3-triazol-1-yl)-3-methylbutanoyl)-4-hydroxy-N-((1R,2S)-2-hydroxy-1-(4-(pentafluoro-I6-sulfaneyl)phenyl)propyl)pyrrolidine-2-carboxamide], for which, in assay [1], the DC50 was above 1000 nM. In assay [2] (Homo sapiens, ASPC1, 144 h), the IC50 is above 1000 nM.
In assay [1], `CCn1nccc1-c1ccc([C@@H](NC(=O)[C@@H]2C[C@@H](O)CN2C(=O)[C@H](C(C)C)n2cc(-c3ccc(COc4c(-c5c(C)c(F)cc6[nH]ncc56)c(C5CC5)cc5c(N(C)[C@H]6CCNC6)nc(OC[C@H](C)OC)nc45)cc3)nn2)[C@H](C)O)c2c1CC2` [Example 149, (2S,4R)-1-((2S)-2-(4-(4-(((6-cyclopropyl-7-(6-fluoro-5-methyl-1H-indazol-4-yl)-2-((S)-2-methoxypropoxy)-4-(methyl((S)-pyrrolidin-3-yl)amino)quinazolin-8-yl)oxy)methyl)phenyl)-1H-1,2,3-triazol-1-yl)-3-methylbutanoyl)-N-((1R,2S)-1-(5-(1-ethyl-1H-pyrazol-5-yl)bicyclo[4.2.0]octa-1(6),2,4-trien-2-yl)-2-hydroxypropyl)-4-hydroxypyrrolidine-2-carboxamide] gave a DC50 below 10 nM. The IC50 in assay [2] (Homo sapiens, ASPC1, 144 h) is below 10 nM.
`Cc1ncsc1-c1ccc([C@@H](NC(=O)[C@@H]2C[C@@H](O)CN2C(=O)[C@H](C(C)C)n2cc(-c3ccc(COc4c(-c5c(C)c(F)cc6[nH]ncc56)c(C5CC5)cc5c(N6C[C@@H]7C[C@H]6CN7)nc(OC6CC7(COC7)C6)nc45)cc3)nn2)[C@@H](C)O)cc1` [Example 150, (2S,4R)-1-((2S)-2-(4-(4-(((2-((2-oxaspiro[3.3]heptan-6-yl)oxy)-4-((1S,4S)-2,5-diazabicyclo[2.2.1]heptan-2-yl)-6-cyclopropyl-7-(6-fluoro-5-methyl-1H-indazol-4-yl)quinazolin-8-yl)oxy)methyl)phenyl)-1H-1,2,3-triazol-1-yl)-3-methylbutanoyl)-4-hydroxy-N-((1R,2R)-2-hydroxy-1-(4-(4-methylthiazol-5-yl)phenyl)propyl)pyrrolidine-2-carboxamide] had a DC50 in assay [1] below 10 nM. The IC50 in assay [2] (Homo sapiens, ASPC1, 144 h) is below 10 nM.
In the case of `CCn1nccc1-c1ccc([C@@H](NC(=O)[C@@H]2C[C@@H](O)CN2C(=O)[C@H](C(C)C)n2cc(-c3ccc(COc4c(-c5c(C)c(F)cc6[nH]ncc56)c(C5CC5)cc5c(N6C[C@@H]7C[C@H]6CN7)nc(O[C@H]6CC[C@H](OC)C6)nc45)cc3)nn2)[C@H](C)O)cc1` [Example 151, (2S,4R)-1-((2S)-2-(4-(4-(((4-((1S,4S)-2,5-diazabicyclo[2.2.1]heptan-2-yl)-6-cyclopropyl-7-(6-fluoro-5-methyl-1H-indazol-4-yl)-2-(((1S,3S)-3-methoxycyclopentyl)oxy)quinazolin-8-yl)oxy)methyl)phenyl)-1H-1,2,3-triazol-1-yl)-3-methylbutanoyl)-N-((1R,2S)-1-(4-(1-ethyl-1H-pyrazol-5-yl)phenyl)-2-hydroxypropyl)-4-hydroxypyrrolidine-2-carboxamide], the DC50 in assay [1] was below 10 nM. This compound gave an IC50 in assay [2] (Homo sapiens, ASPC1, 144 h) below 10 nM.
As for `CCn1nccc1-c1ccc([C@H](CO)NC(=O)[C@@H]2C[C@@H](O)CN2C(=O)[C@H](C(C)C)n2cc(-c3ccc(COc4c(-c5c(C)c(F)cc6[nH]ncc56)c(C5CC5)cc5c(N6C[C@@H]7C[C@H]6CN7)nc(OC[C@H](C)OC)nc45)cc3)nn2)c2c1CC2` [Example 152, (2S,4R)-1-((2S)-2-(4-(4-(((4-((1S,4S)-2,5-diazabicyclo[2.2.1]heptan-2-yl)-6-cyclopropyl-7-(6-fluoro-5-methyl-1H-indazol-4-yl)-2-((S)-2-methoxypropoxy)quinazolin-8-yl)oxy)methyl)phenyl)-1H-1,2,3-triazol-1-yl)-3-methylbutanoyl)-N—((R)-1-(5-(1-ethyl-1H-pyrazol-5-yl)bicyclo[4.2.0]octa-1(6),2,4-trien-2-yl)-2-hydroxyethyl)-4-hydroxypyrrolidine-2-carboxamide], the half-maximal degradation concentration (DC50) in assay [1] was below 10 nM. The compound further registered a half-maximal inhibitory concentration (IC50) in assay [2] (Homo sapiens, ASPC1, 144 h) below 10 nM.
Turning to `CCn1nccc1-c1ccc([C@H](CO)NC(=O)[C@@H]2C[C@@H](O)CN2C(=O)[C@H](C(C)C)n2cc(-c3ccc(COc4c(-c5c(C)c(F)cc6[nH]ncc56)c(C5CC5)cc5c(N6CCNCC[C@H]6C)nc(OC[C@H](C)OC)nc45)cc3)nn2)cc1` [Example 154, (2S,4R)-1-((2S)-2-(4-(4-(((6-cyclopropyl-7-(6-fluoro-5-methyl-1H-indazol-4-yl)-2-((S)-2-methoxypropoxy)-4-((R)-7-methyl-1,4-diazepan-1-yl)quinazolin-8-yl)oxy)methyl)phenyl)-1H-1,2,3-triazol-1-yl)-3-methylbutanoyl)-N—((R)-1-(4-(1-ethyl-1H-pyrazol-5-yl)phenyl)-2-hydroxyethyl)-4-hydroxypyrrolidine-2-carboxamide], the DC50 in assay [1] was below 10 nM. In assay [2] (Homo sapiens, ASPC1, 144 h), the IC50 is below 10 nM.
